# Columns and labels:
# Aβ generation [1] = assay: Aβ ELISA, conditioned media of APP-transfected N2a cells (Example 1); format: cell-based, murine
# Description: (§1) Aβ1-40 and 1-42 peptides were analyzed in the conditioned media from SweAPP N2a cells (FIGS. 1A, 1C, 1D) and transgenic APPsw mouse-derived primary neuronal cells (FIG. 1B) by ELISA (n=3 for each condition).
# (§2) TAPI-1, β and γ-secretase inhibitors were obtained from Calbiochem (San Diego, Calif.). Green tea extract (75% polyphenols) was obtained from the Vitamin Shoppe™ (North Bergen, N.J.).
# (§3) Cultured cells were lysed in ice-cold-lysis buffer (20 mM Tris, pH 7.5, 150 mM NaCl, 1 mM EDTA, 1 mM EGTA, 1% v/v Triton X-100, 2.5 mM sodium pyropgosphate, 1 mM β-glycerolphosphate, 1 mM Na3VO4, 1 μg/mL leupeptin, 1 mM PMSF) as previously described (Tan et al., 2002). Mouse brains were isolated under sterile conditions on ice and placed in ice-cold lysis buffer. Brains were then sonicated on ice for approximately 3 min, allowed to stand for 15 min at 4° C., and centrifuged at 15,000 rpm for 15 min. Total Aβ1-42 species were detected by acid extraction of brain homogenates in 5 M guanidine buffer (ret), followed by a 1:10 dilution in lysis buffer. Soluble Aβ1-42 was directly detected in cultured cell lysates or brain homogenates prepared with lysis buffer described above by a 1:4 or 1:10 dilution, respectively. Aβ1-42 was quantified in these samples using the Aβ1-42 ELISA kit (BioSource, Camarillo, Calif.) in accordance with the manufacturer's instructions, except that standards included a 0.5 M guanidine buffer.
# In order to examine the effects of green tea's components on APP cleavage processing, for a first step, N2a neuroblastoma cells overproducing Aβ were treated with each of the aforementioned components at a wide range of doses. In addition, doses of (+)-catechin hydrate (CH) and gallic acid monohydrate (GAM) were included in the first step.
# Aβ generation [2] = assay: Aβ ELISA, transgenic APPsw mouse-derived primary neuronal cells (Example 1); format: cell-based; conditions: 20 μM, FIG. 1B
# Description: as §1, §2
# as §3, with “lysis buffer. […] Total Aβ1-42” for “lysis buffer. Brains were then sonicated on ice for approximately 3 min, allowed to stand for 15 min at 4° C., and centrifuged at 15,000 rpm for 15 min. Total Aβ1-42”, “guanidine buffer. […]” for “guanidine buffer.”
# α-secretase = α-secretase cleavage activity kit, lysates of APP-transfected N2a cells; format: cell-based, murine; conditions: first 1 to 3 hours after EGCG
# [3] = system: TNF-a converting enzyme (TACE); assay: Western blot of TACE in APP-transfected N2a cells; format: cell-based, murine; conditions: in 3 to 4 hours following EGCG treatment, then rapidly cleaved through 8 hours
# Description: Cell cultured supernatants were collected and cell lysates were prepared from these cultured cells.
# Cultured cells and mouse brain were lysed in ice-cold lysis buffer described above, and an aliquot corresponding to 50 μg of total protein was electrophoretically separated using 16.5% Tris-tricine gels. Electrophoresed proteins were then transferred to PVDF membranes (Bio-Rad), washed in dH2O, and blocked for 1 hour at ambient temperature in Tris-buffered saline (TBS; Bio-Rad) containing 5% (w/v) for non-fat dry milk. After blocking, membranes were hybridized for 1 hour at ambient temperature with various antibodies, including against the C- (369), N-terminus of APP (22C11), the N-terminus of Aβ (6E10), and ADAM10 and TACE (Calbiochem). […] Densitometric analysis was done using the Fluor-S Multimager™ with Quantity One™ software (Bio-Rad). […] Antibodies used for Western blot included antibody 369 (1:1,000), anti-C-terminal APP antibody (1:500; Chemicon, Temecula, Calif.), BAM-10 (1:1,000; Sigma), 6E10 (1:1,000; Signet) or anti-Actin antibody (1:1,500; as an internal reference control; Roche). α-, β- and γ-secretase activities were quantified in cell lysates and mouse brain homogenates using available kits based on secretase-specific peptides conjugated to fluorogenic receptor molecules (R&D Systems, Minneapolis, Minn.).
# ADAM9 = assay: Western blot of ADAM9 in SweAPP N2a cells; format: cell-based, murine; conditions: EGCG treatment; data not shown
# Description: Cultured cells were lysed in ice-cold lysis buffer described above, and an aliquot corresponding to 50 μg of total protein was electrophoretically separated using 16.5% Tris-tricine gels. Electrophoresed proteins were then transferred to PVDF membranes (Bio-Rad, Richmond, Calif.), washed in ddH2O, and blocked for 1 h at ambient temperature in Tris-buffered saline (TBS; Bio-Rad) containing 5% (w/v) non-fat dry milk. After blocking, membranes were hybridized for 1 h at ambient temperature with various primary antibodies. Membranes were then washed 3 times for 5 min each in ddH2O and incubated for 1 h at ambient temperature with the appropriate HRP-conjugated secondary antibody (1:1,000, Pierce Biotechnology, Inc. Rockford, Ill.). All antibodies were diluted in TBS containing 5% (w/v) of non-fat dry milk. Blots were developed using the luminol reagent (Pierce Biotechnology). Densitometric analysis was done using the Fluor-S MultiImager™ with Quantity One™ software (Bio-Rad). For examining sAPP-α, conditioned medium was collected following treatment according to a modified protocol from Chen and Fernandez (Chen et al., 2004). sAPP-α was extracted using 3K Nanosep centrifugal filters (Pall Life Sciences, Ann Arbor, Mich.) and protein concentrate was prepared for the aforementioned electrophoresis. […]
# ADAM10 mRNA = assay: RT-PCR of ADAM10 mRNA in SweAPP N2a cells; format: cell-based, murine; conditions: various doses of EGCG, 8 h
# Description: Analysis of murine ADAM10 was conducted according to previously published methods (Ehrhart et al., 2005; Park et al., 2001). Briefly, total RNA was isolated from SweAPP N2a cells and subjected to reverse transcription utilizing a commercially available kit (cDNA Cycle® kit; Invitrogen, Carlsbad, Calif.) according to the manufacturer's instructions on a Bio-Rad iCycler thermocycler. […] Thermocycler conditions consisted of an initial denaturing step at 95° C. for 15 min, followed by 35 cycles of 94° C. for 30 s, 50° C. for 1 min, and 72° C. for 1 min at, and a final extension step at 72° C. for 10 min. Resolution and analysis of PCR products (murine ADAM10: 881 bp, murine γ-actin: 357 bp) band densities was conducted by ethidium bromide-stained agarose gel electrophoresis and identified using UV transillumination by comparisons with molecular weight markers (Invitrogen). Samples that were not subjected to reverse transcription were run in parallel as negative controls to rule out DNA contamination as a template for PCR products (data not shown). A “no template control” was also included for each primer set as a further negative control (data not shown). Amplification of γ-actin was used to normalize for input cDNA.
# ADAM10 [4] = assay: Western blot of ADAM10 maturation in N9 microglial cells; format: cell-based; conditions: various doses, 8 h
# Description: Cultured cells were lysed in ice-cold lysis buffer described above, and an aliquot corresponding to 50 μg of total protein was electrophoretically separated using 16.5% Tris-tricine gels. Electrophoresed proteins were then transferred to PVDF membranes (Bio-Rad, Richmond, Calif.), washed in ddH2O, and blocked for 1 h at ambient temperature in Tris-buffered saline (TBS; Bio-Rad) containing 5% (w/v) non-fat dry milk. After blocking, membranes were hybridized for 1 h at ambient temperature with various primary antibodies. Membranes were then washed 3 times for 5 min each in ddH2O and incubated for 1 h at ambient temperature with the appropriate HRP-conjugated secondary antibody (1:1,000, Pierce Biotechnology, Inc. Rockford, Ill.). All antibodies were diluted in TBS containing 5% (w/v) of non-fat dry milk. Blots were developed using the luminol reagent (Pierce Biotechnology). Densitometric analysis was done using the Fluor-S MultiImager™ with Quantity One™ software (Bio-Rad). […] Antibodies used for Western blot included: antibody 369 (which recognizes the carboxyl-terminus of APP; 1:1,500), clone 22C11 (against the amino-terminus of APP; 1:1,500), clone 6E10 (against amino acids 1-17 of Aβ; 1:1,500), anti-ADAM9 (1:500), and antibodies against ADAM10 (1:500), ADAM17 (1:500) or actin (1:1,500; as an internal reference control).
# ADAM10 [5] = assay: Western blot of ADAM10 maturation in primary murine neuronal cultures; format: cell-based; conditions: various doses, 8 h
# Description: Cultured cells were lysed in ice-cold lysis buffer described above, and an aliquot corresponding to 50 μg of total protein was electrophoretically separated using 16.5% Tris-tricine gels. Electrophoresed proteins were then transferred to PVDF membranes (Bio-Rad, Richmond, Calif.), washed in ddH2O, and blocked for 1 h at ambient temperature in Tris-buffered saline (TBS; Bio-Rad) containing 5% (w/v) non-fat dry milk. After blocking, membranes were hybridized for 1 h at ambient temperature with various primary antibodies. Membranes were then washed 3 times for 5 min each in ddH2O and incubated for 1 h at ambient temperature with the appropriate HRP-conjugated secondary antibody (1:1,000, Pierce Biotechnology, Inc. Rockford, Ill.). All antibodies were diluted in TBS containing 5% (w/v) of non-fat dry milk. Blots were developed using the luminol reagent (Pierce Biotechnology). Densitometric analysis was done using the Fluor-S MultiImager™ with Quantity One™ software (Bio-Rad). […] Antibodies used for Western blot included: antibody 369 (which recognizes the carboxyl-terminus of APP; 1:1,500), clone 22C11 (against the amino-terminus of APP; 1:1,500), clone 6E10 (against amino acids 1-17 of Aβ; 1:1,500), anti-ADAM9 (1:500), and antibodies against ADAM10 (1:500), ADAM17 (1:500) or actin (1:1,500; as an internal reference control). […]
# APP α-secretase cleavage = assay: Western blot of APP CTFs and sAPP-α in SweAPP N2a cells (Examples 6-7, with or without siRNA knock-down); format: cell-based, murine; conditions: various doses of EGCG, 8 h
# Description: FIGS. 8A-8H show EGCG-induced ADAM10 activation correlates with APP α-secretase cleavage in vitro. […] Data were represented as % change relative to control (medium from cultured SweAPP N2a cells or primary neuronal cells without any treatment).
# FIGS. 10A-10C show ADAM10 is required for EGCG-induced APP α-secretase cleavage. […] In FIG. 10A, cell lysates were subjected to WB for APP CTFs and ADAM10 cleavage analyses. […] In FIG. 10B, cell culture media were subjected to WB for sAPP-α secretion. […] In FIG. 10C, cell culture media were subjected to Aβ ELISA. Data are represented as % change relative to control (medium from cultured SweAPP N2a cells without any treatment). […] Data are representative of three independent experiments.
# Cultured cells were lysed in ice-cold lysis buffer described above, and an aliquot corresponding to 50 μg of total protein was electrophoretically separated using 16.5% Tris-tricine gels. […] Densitometric analysis was done using the Fluor-S MultiImager™ with Quantity One™ software (Bio-Rad). […]
# SweAPP N2a cells were transfected with siRNA pre-designed to knock-down murine ADAM9, 10, or 17 mRNA (Dharmacon Inc. Lafayette, Colo.). […] Transfection efficiency was determined to be greater than 80% (data not shown) using no-RISC siGLOW (fluorescently labeled non-functional siRNA; Dharmacon). […] The cells were evaluated by Western blot analysis for expression of ADAM9, 10 or 17. […]
compound,measurement,setting,value
"O=C(O[C@@H]1Cc2c(O)cc(O)cc2O[C@@H]1c1cc(O)c(O)c(O)c1)c1cc(O)c(O)c(O)c1 [EGCG, (−)-epigallocatechin-3-gallate]",reduction of Aβ1-42 generation over control (PBS),"Aβ generation [1]; 20 μM, human APP695-transfected N2a cells, FIG. 1A",60%
same,"ability to inhibit Aβ generation, purified EGCG versus same amounts EGCG present in GT mixtures","Aβ generation [1]; SweAPP N2a cells, equivalent doses, FIG. 1D",much greater
same,reduction of Aβ1-42 generation over control (PBS),Aβ generation [2],40%
same,α-secretase cleavage activity in cell lysate,α-secretase,markedly elevated
same,TACE expression,[3],significantly increased
same,ADAM9 expression,ADAM9,no significant effects
same,ADAM10 mRNA levels,ADAM10 mRNA,no significant between-EGCG dose differences
same,ADAM10 maturation,ADAM10 [4],dose-dependently increased
same,mature ADAM10,ADAM10 [5],dose-dependent increases
same,sAPP-α,APP α-secretase cleavage,dose-dependent increases
same,α-CTF,APP α-secretase cleavage,dose-dependent increases

# — patent US20130261045A1, “GREEN TEA POLYPHENOL ALPHA SECRETASE ENHANCERS AND METHODS OF USE” (UNIVERSITY OF SOUTH FLORIDA, priority 2005, published 2013)
